Assay results reported in patent US20150290306A1, “COMPOSITIONS AND METHODS FOR DIAGNOSIS AND TREATMENT OF MALIGNANT GLIOMAS” (priority 2012, published 2015).

System: PBMCs
Experiment: PBMC culture with candidate peptides for 14 days, IFN-γ and IL-5 in supernatant by ELISA
Assay type: cell-based, human
Settings: for IFN-γ/IL-5 ratio (geometric mean): peptide 10 μg/mL
Text: Measurement of antigen-specific T cell responses in the peripheral blood in humans differs depending on whether responses are high affinity interactions with foreign (viral) epitopes or lower affinity interactions involving recognition of self-antigens. […] Given that T cell responses directed against MAGE and IL-13Rα2 antigens also involve T cells with low affinity to these self-antigens, antigen-specific responses were quantified based on cytokine secretion, as recently described in a phase I study of patients with MS (Viglietta V, et al: Neurology 2008, 71(12):917-924). Cytokine production was quantified by ELISA, defining a positive T cell response for each patient as the amounts of IFN-γ or IL-5 that were >50 pg/mL and two standard deviations above the mean cytokine levels secreted after stimulation of cells from that patient with negative control MBP peptide.
Twenty-five mL of blood from patients or healthy subjects was obtained under an IRB-approved protocol. All samples of blood from patients were taken at the time of surgery. […] All tumor-bearing patients received similar doses of steroids and anti-epileptic medications at the time of tumor debulking surgery prior to obtaining peripheral blood for these studies. T cell responses in patients with meningiomas controlled for influences of steroids on antigen responsiveness and cytokine balance. Tumor tissue was independently confirmed in all cases by formal pathological analysis. PBMCs were purified from heparinized blood by density gradient centrifugation using Ficoll-Hypaque (GE Healthcare Biosciences), and cells were then washed with PBS and viable cells quantified by trypan-blue staining.
Freshly isolated PBMCs were plated at 2×10^5 cells/well in 200 μl of serum-free X-VIVO15 (X15) media (Lonza) in 96-well round-bottom cell culture plates. Candidate peptides, in addition to a negative control peptide derived from MBP were added at a concentration of 10 μg/mL and anti-CD3 mAb was added at a concentration of 1 μg/mL. Six T cell cultures were established for each condition in each subject, and 100 IU/ml of IL-2 was added on the following day. Plates were incubated at 37° C. and 5% CO2 for 14 days, with media changed as needed, and the supernatant was harvested to evaluate T cell responses (cytokines) induced by each condition using ELISA. In a limited number (n=3) of patients, cytokine production was assessed after both 7 and 14 days. […] An IFN-γ ELISPOT assay was performed as previously described (Lv H, Havari E, et al: J Clin Invest, 121(4):1561-1573).
To detect T helper cell responses directed against the candidate peptides, IFN-γ and IL-5 were measured by ELISA using commercially available kits supplied by BD bioscience. IFN-γ was used as a prototypic Th1 cytokine and IL-5 was chosen as a prototypic cytokine released by Th2 cells because unlike IL-4 there would be no potential consumption by antigen-specific T cells in the culture conditions (Kourilsky P, Truffa-Bachi P: Trends Immunol 2001, 22(9):502-509).

Sequence | positive wells among 6 primary T cell responses (IFN-γ or IL-5 ELISA) (Healthy Subject 1) | positive wells among 6 primary T cell responses (IFN-γ or IL-5 ELISA) (Healthy Subject 4) | positive wells among 6 primary T cell responses (IFN-γ or IL-5 ELISA) (Healthy Subject 5) | positive wells among 6 primary T cell responses (IFN-γ or IL-5 ELISA) (Healthy Subject 6) | positive wells among 6 primary T cell responses (IFN-γ or IL-5 ELISA) (Meningioma 5) | positive wells among 6 primary T cell responses (IFN-γ or IL-5 ELISA) (Meningioma 6) | positive wells among 6 primary T cell responses (IFN-γ or IL-5 ELISA) (Primary GBM 1) | positive wells among 6 primary T cell responses (IFN-γ or IL-5 ELISA) (Primary GBM 2) | positive wells among 6 primary T cell responses (IFN-γ or IL-5 ELISA) (Primary GBM 3) | positive wells among 6 primary T cell responses (IFN-γ or IL-5 ELISA) (Primary GBM 4) | positive wells among 6 primary T cell responses (IFN-γ or IL-5 ELISA) (Primary GBM 5) | positive wells among 6 primary T cell responses (IFN-γ or IL-5 ELISA) (Primary GBM 7) | positive wells among 6 primary T cell responses (IFN-γ or IL-5 ELISA) (Primary GBM 8) | positive wells among 6 primary T cell responses (IFN-γ or IL-5 ELISA) (Recurrent GBM 1) | positive wells among 6 primary T cell responses (IFN-γ or IL-5 ELISA) (Recurrent GBM 3) | positive wells among 6 primary T cell responses (IFN-γ or IL-5 ELISA) (Recurrent GBM 5) | IFN-γ/IL-5 ratio (geometric mean) (healthy subjects) | IFN-γ/IL-5 ratio (geometric mean) (patients with primary GBMs) | IFN-γ/IL-5 ratio (geometric mean) (patients with recurrent GBMs) | positive wells among 6 primary T cell responses (IFN-γ or IL-5 ELISA) (Primary GBM 6) | other results
ILILVIFVTGLLLRK [IL-13Ra2351-365] | + (+/++ cell=1-2 positive wells) | +++++ (+++++/++++++ cell=5-6 positive wells) | ++ (+/++ cell=1-2 positive wells) | ++ (+/++ cell=1-2 positive wells) | ++ (+/++ cell=1-2 positive wells) | ++++++ (+++++/++++++ cell=5-6 positive wells) | +++ (+++/++++ cell=3-4 positive wells) | ++ (+/++ cell=1-2 positive wells) | ++ (+/++ cell=1-2 positive wells) | +++ (+++/++++ cell=3-4 positive wells) | + (+/++ cell=1-2 positive wells) | +++ (+++/++++ cell=3-4 positive wells) | +++++ (+++++/++++++ cell=5-6 positive wells) | ++ (+/++ cell=1-2 positive wells) | + (+/++ cell=1-2 positive wells) | ++ (+/++ cell=1-2 positive wells) | 2.0 | 0.3 | 0.05 | – | positive wells among 6 primary T cell responses (IFN-γ or IL-5 ELISA) (Meningioma 3): + (+/++ cell=1-2 positive wells); IFN-γ/IL-5 ratio, recurrent GBM patients compared to primary GBM patients (P<0.05): significantly lower
KVDELAHFLLRKYRAK [MAGE-A3112-127] | +++ (+++/++++ cell=3-4 positive wells) | ++ (+/++ cell=1-2 positive wells) | + (+/++ cell=1-2 positive wells) | – | +++ (+++/++++ cell=3-4 positive wells) | + (+/++ cell=1-2 positive wells) | – | ++ (+/++ cell=1-2 positive wells) | ++ (+/++ cell=1-2 positive wells) | + (+/++ cell=1-2 positive wells) | +++++ (+++++/++++++ cell=5-6 positive wells) | +++ (+++/++++ cell=3-4 positive wells) | ++++ (+++/++++ cell=3-4 positive wells) | + (+/++ cell=1-2 positive wells) | ++ (+/++ cell=1-2 positive wells) | + (+/++ cell=1-2 positive wells) | 4.9 | 0.2 | 0.04 | ++ (+/++ cell=1-2 positive wells) | positive wells among 6 primary T cell responses (IFN-γ or IL-5 ELISA) (Healthy Subject 3): ++ (+/++ cell=1-2 positive wells); positive wells among 6 primary T cell responses (IFN-γ or IL-5 ELISA) (Recurrent GBM 2): + (+/++ cell=1-2 positive wells); positive wells among 6 primary T cell responses (IFN-γ or IL-5 ELISA) (Recurrent GBM 4): ++ (+/++ cell=1-2 positive wells)
LLRFWLPFGFILILV [IL-13Ra2341-355] | – | + (+/++ cell=1-2 positive wells) | ++++ (+++/++++ cell=3-4 positive wells) | + (+/++ cell=1-2 positive wells) | ++ (+/++ cell=1-2 positive wells) | + (+/++ cell=1-2 positive wells) | + (+/++ cell=1-2 positive wells) | ++ (+/++ cell=1-2 positive wells) | +++++ (+++++/++++++ cell=5-6 positive wells) | – | ++ (+/++ cell=1-2 positive wells) | +++ (+++/++++ cell=3-4 positive wells) | ++++ (+++/++++ cell=3-4 positive wells) | ++ (+/++ cell=1-2 positive wells) | – | – | 1.6 | 0.3 | 0.02 | ++ (+/++ cell=1-2 positive wells) | positive wells among 6 primary T cell responses (IFN-γ or IL-5 ELISA) (Healthy Subject 2): + (+/++ cell=1-2 positive wells)
LRKYRAKELVTKAEML [MAGE-A3121-136] | +++ (+++/++++ cell=3-4 positive wells) | + (+/++ cell=1-2 positive wells) | + (+/++ cell=1-2 positive wells) | + (+/++ cell=1-2 positive wells) | – | + (+/++ cell=1-2 positive wells) | ++ (+/++ cell=1-2 positive wells) | ++ (+/++ cell=1-2 positive wells) | ++++ (+++/++++ cell=3-4 positive wells) | ++ (+/++ cell=1-2 positive wells) | ++++ (+++/++++ cell=3-4 positive wells) | ++++ (+++/++++ cell=3-4 positive wells) | ++ (+/++ cell=1-2 positive wells) | ++ (+/++ cell=1-2 positive wells) | + (+/++ cell=1-2 positive wells) | + (+/++ cell=1-2 positive wells) | 8.1 | 0.1 | 0.06 | ++ (+/++ cell=1-2 positive wells) | positive wells among 6 primary T cell responses (IFN-γ or IL-5 ELISA) (Healthy Subject 2): + (+/++ cell=1-2 positive wells); positive wells among 6 primary T cell responses (IFN-γ or IL-5 ELISA) (Healthy Subject 3): +++ (+++/++++ cell=3-4 positive wells); positive wells among 6 primary T cell responses (IFN-γ or IL-5 ELISA) (Meningioma 1): + (+/++ cell=1-2 positive wells); positive wells among 6 primary T cell responses (IFN-γ or IL-5 ELISA) (Meningioma 2): +++ (+++/++++ cell=3-4 positive wells); positive wells among 6 primary T cell responses (IFN-γ or IL-5 ELISA) (Recurrent GBM 4): + (+/++ cell=1-2 positive wells)
